From publication PMC9967275, “Screening the Pathogen Box to Discover and Characterize New Cruzain and TbrCatL Inhibitors” (Pathogens, 2023)
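Further: at 5 µM compound concentration.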

The compounds below were run against T1, TbrCatL (Trypanosoma brucei rhodesiense, UniProt Q95PM0) (assay: TbrCatL enzymatic inhibition assay (cleavage of fluorogenic substrate Z-FR-AMC)). Details: 0’ (no pre-incubation); sheet Screening results.
T1 construct: Conor Caffrey (University of California San Diego)
T1 sequence (Q95PM0 entry or part of it): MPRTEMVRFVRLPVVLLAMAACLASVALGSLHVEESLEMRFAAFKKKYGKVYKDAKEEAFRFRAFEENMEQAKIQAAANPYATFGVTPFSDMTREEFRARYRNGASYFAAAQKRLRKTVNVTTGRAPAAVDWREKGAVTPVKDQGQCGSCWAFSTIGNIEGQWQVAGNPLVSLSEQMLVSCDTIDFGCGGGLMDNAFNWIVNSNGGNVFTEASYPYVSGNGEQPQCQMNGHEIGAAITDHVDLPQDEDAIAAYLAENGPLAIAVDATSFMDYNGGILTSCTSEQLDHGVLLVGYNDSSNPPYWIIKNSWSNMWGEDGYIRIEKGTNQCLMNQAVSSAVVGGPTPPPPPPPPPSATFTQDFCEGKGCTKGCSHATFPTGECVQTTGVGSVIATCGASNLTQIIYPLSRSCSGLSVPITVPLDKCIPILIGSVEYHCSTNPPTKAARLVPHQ
Type: biochemical
Summary of the method: (§1)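 Recombinant enzymes assayed by Z-Phe-Arg-AMC cleavage at 25 °C, fluorescence 340/440 nm over 5–7 min, with 10 min or no enzyme–compound preincubation.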
In the case of `CS(=O)(=O)N1CCC(CCn2nc(Cc3cccc4ccccc34)c3c(N)ncnc32)CC1` [MMV688470], the “TbrCatL Inhibition 0’” value is reported as 14%. In the case of `CC(C(=O)Nc1ccc2oc(-c3ccncc3)nc2c1)c1ccccc1` (centres unmarked) [MMV688471], the “TbrCatL Inhibition 0’” value is reported as 26%. `CC(Oc1cccc(Cl)c1)C(=O)Nc1ccc2oc(-c3ccncc3)nc2c1` (centres unmarked) [MMV688472] was tested, and the “TbrCatL Inhibition 0’” value was 13%. In the case of `CC(=O)NCC1CN(c2ccc(-c3ccc(CO)cc3)c(F)c2)C(=O)O1` (centres unmarked) [MMV688508], the “TbrCatL Inhibition 0’” value is reported as -0.7%. In the case of `N=C(N)c1ccc(-c2cc(-c3ccccc3)on2)cc1` [MMV688514], the “TbrCatL Inhibition 0’” value is reported as 20%. `COc1ccc(C2=NCCN2)cc1-c1cn(-c2cccc(C3=NCCN3)c2)nn1` [MMV688547] was tested, and the “TbrCatL Inhibition 0’” value was 6%. In the case of `CC(C)(C)n1nc(-c2ccccc2)c2c(N)ncnc21` [MMV688548], the “TbrCatL Inhibition 0’” value is reported as 20%. With `O=C(NCc1ccoc1)N1CCN(Cc2ccc3c(c2)OCO3)CC1` [MMV688553] the “TbrCatL Inhibition 0’” value was -1.2%. For `CNc1snc(C)c1C(=O)NCCOc1ccc(OC)cc1` [MMV688554], the “TbrCatL Inhibition 0’” value was -7%. `O=C(NCc1ccco1)N1CCN(Cc2ccc(Cl)s2)CC1` [MMV688555] was tested, and the “TbrCatL Inhibition 0’” value was 6%. In the case of `Cc1cc2nc(NC(=O)C(C)(C)C)nc(Cl)c2n1Cc1ccc(Cl)cc1` [MMV688704], the “TbrCatL Inhibition 0’” value is reported as 16%. In the case of `CC(=O)NC[C@H]1CN(c2ccc(N3CCSCC3)c(F)c2)C(=O)O1` [MMV688756], the “TbrCatL Inhibition 0’” value is reported as 10%. With `CS(=O)(=O)c1ccc(C(=O)N(CC2CCCO2)c2nc3ccccc3s2)cc1[N+](=O)[O-]` (centres unmarked) [MMV688761] the “TbrCatL Inhibition 0’” value was -0.9%. `c1ccc(-c2[nH]c3ccccc3c2C(c2ccccn2)N2CCCC2)cc1` (centres unmarked) [MMV688762] was tested, and the “TbrCatL Inhibition 0’” value was 3.2%. For `CNc1nnc(Sc2cnn(-c3ccccc3)c(=O)c2Cl)s1` [MMV688763], the “TbrCatL Inhibition 0’” value was 7.5%. With `Cc1[nH]c2ccccc2c1C(c1cccs1)N1CCN(C)CC1` (centres unmarked) [MMV688768] the “TbrCatL Inhibition 0’” value was 0.9%. For `O=C(Cn1ccnc1[N+](=O)[O-])NCc1ccccc1` [MMV688773], the “TbrCatL Inhibition 0’” value was 4.3%.

Same assay, conditions: 10’ (pre-incubation); sheet Screening results
`CS(=O)(=O)N1CCC(CCn2nc(Cc3cccc4ccccc34)c3c(N)ncnc32)CC1` [MMV688470] was tested, and the “TbrCatL Inhibition 10’” value was 9%. For `CC(C(=O)Nc1ccc2oc(-c3ccncc3)nc2c1)c1ccccc1` (centres unmarked) [MMV688471], the “TbrCatL Inhibition 10’” value was 20%. `CC(Oc1cccc(Cl)c1)C(=O)Nc1ccc2oc(-c3ccncc3)nc2c1` (centres unmarked) [MMV688472] was tested, and the “TbrCatL Inhibition 10’” value was 14%. `CC(=O)NCC1CN(c2ccc(-c3ccc(CO)cc3)c(F)c2)C(=O)O1` (centres unmarked) [MMV688508] was tested, and the “TbrCatL Inhibition 10’” value was -5%. For `N=C(N)c1ccc(-c2cc(-c3ccccc3)on2)cc1` [MMV688514], the “TbrCatL Inhibition 10’” value was -6.6%. With `COc1ccc(C2=NCCN2)cc1-c1cn(-c2cccc(C3=NCCN3)c2)nn1` [MMV688547] the “TbrCatL Inhibition 10’” value was 4%. For `CC(C)(C)n1nc(-c2ccccc2)c2c(N)ncnc21` [MMV688548], the “TbrCatL Inhibition 10’” value was 12%. With `O=C(NCc1ccoc1)N1CCN(Cc2ccc3c(c2)OCO3)CC1` [MMV688553] the “TbrCatL Inhibition 10’” value was -6.4%. For `CNc1snc(C)c1C(=O)NCCOc1ccc(OC)cc1` [MMV688554], the “TbrCatL Inhibition 10’” value was -8%. `O=C(NCc1ccco1)N1CCN(Cc2ccc(Cl)s2)CC1` [MMV688555] was tested, and the “TbrCatL Inhibition 10’” value was 0.9%. `Cc1cc2nc(NC(=O)C(C)(C)C)nc(Cl)c2n1Cc1ccc(Cl)cc1` [MMV688704] was tested, and the “TbrCatL Inhibition 10’” value was 16%. With `CC(=O)NC[C@H]1CN(c2ccc(N3CCSCC3)c(F)c2)C(=O)O1` [MMV688756] the “TbrCatL Inhibition 10’” value was 7%. With `CS(=O)(=O)c1ccc(C(=O)N(CC2CCCO2)c2nc3ccccc3s2)cc1[N+](=O)[O-]` (centres unmarked) [MMV688761] the “TbrCatL Inhibition 10’” value was 1.2%. In the case of `c1ccc(-c2[nH]c3ccccc3c2C(c2ccccn2)N2CCCC2)cc1` (centres unmarked) [MMV688762], the “TbrCatL Inhibition 10’” value is reported as 1.8%. In the case of `CNc1nnc(Sc2cnn(-c3ccccc3)c(=O)c2Cl)s1` [MMV688763], the “TbrCatL Inhibition 10’” value is reported as 1.7%. In the case of `Cc1[nH]c2ccccc2c1C(c1cccs1)N1CCN(C)CC1` (centres unmarked) [MMV688768], the “TbrCatL Inhibition 10’” value is reported as 2.4%. `O=C(Cn1ccnc1[N+](=O)[O-])NCc1ccccc1` [MMV688773] was tested, and the “TbrCatL Inhibition 10’” value was 3.7%.

Each compound was assayed against cruzain (Trypanosoma cruzi, UniProt P25779) (assay: biochemical). Details: 0’ (no pre-incubation); sheet Screening results.
cruzain, sequence (P25779 123-337 limits assumed): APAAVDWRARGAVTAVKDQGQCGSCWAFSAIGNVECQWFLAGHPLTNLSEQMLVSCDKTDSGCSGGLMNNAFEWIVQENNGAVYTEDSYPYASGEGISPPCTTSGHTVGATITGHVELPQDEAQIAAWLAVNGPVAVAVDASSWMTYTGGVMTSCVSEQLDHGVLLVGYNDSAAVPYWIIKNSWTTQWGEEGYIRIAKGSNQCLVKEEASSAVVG
Summary of the method: as §1
In the case of `CS(=O)(=O)N1CCC(CCn2nc(Cc3cccc4ccccc34)c3c(N)ncnc32)CC1` [MMV688470], the “Cruzain Inhibition 0’” value is reported as 10%. In the case of `CC(C(=O)Nc1ccc2oc(-c3ccncc3)nc2c1)c1ccccc1` (centres unmarked) [MMV688471], the “Cruzain Inhibition 0’” value is reported as 19%. `CC(Oc1cccc(Cl)c1)C(=O)Nc1ccc2oc(-c3ccncc3)nc2c1` (centres unmarked) [MMV688472] was tested, and the “Cruzain Inhibition 0’” value was 17%. In the case of `CC(=O)NCC1CN(c2ccc(-c3ccc(CO)cc3)c(F)c2)C(=O)O1` (centres unmarked) [MMV688508], the “Cruzain Inhibition 0’” value is reported as -0.1%. In the case of `N=C(N)c1ccc(-c2cc(-c3ccccc3)on2)cc1` [MMV688514], the “Cruzain Inhibition 0’” value is reported as 14%. In the case of `COc1ccc(C2=NCCN2)cc1-c1cn(-c2cccc(C3=NCCN3)c2)nn1` [MMV688547], the “Cruzain Inhibition 0’” value is reported as 10%. `CC(C)(C)n1nc(-c2ccccc2)c2c(N)ncnc21` [MMV688548] was tested, and the “Cruzain Inhibition 0’” value was 8%. `O=C(NCc1ccoc1)N1CCN(Cc2ccc3c(c2)OCO3)CC1` [MMV688553] was tested, and the “Cruzain Inhibition 0’” value was -7%. In the case of `CNc1snc(C)c1C(=O)NCCOc1ccc(OC)cc1` [MMV688554], the “Cruzain Inhibition 0’” value is reported as -8%. In the case of `O=C(NCc1ccco1)N1CCN(Cc2ccc(Cl)s2)CC1` [MMV688555], the “Cruzain Inhibition 0’” value is reported as -0.7%. With `Cc1cc2nc(NC(=O)C(C)(C)C)nc(Cl)c2n1Cc1ccc(Cl)cc1` [MMV688704] the “Cruzain Inhibition 0’” value was 11%. For `CC(=O)NC[C@H]1CN(c2ccc(N3CCSCC3)c(F)c2)C(=O)O1` [MMV688756], the “Cruzain Inhibition 0’” value was 14%. In the case of `CS(=O)(=O)c1ccc(C(=O)N(CC2CCCO2)c2nc3ccccc3s2)cc1[N+](=O)[O-]` (centres unmarked) [MMV688761], the “Cruzain Inhibition 0’” value is reported as -0.3%. `c1ccc(-c2[nH]c3ccccc3c2C(c2ccccn2)N2CCCC2)cc1` (centres unmarked) [MMV688762] was tested, and the “Cruzain Inhibition 0’” value was 3.2%. For `CNc1nnc(Sc2cnn(-c3ccccc3)c(=O)c2Cl)s1` [MMV688763], the “Cruzain Inhibition 0’” value was 6%. `Cc1[nH]c2ccccc2c1C(c1cccs1)N1CCN(C)CC1` (centres unmarked) [MMV688768] was tested, and the “Cruzain Inhibition 0’” value was 2.7%. With `O=C(Cn1ccnc1[N+](=O)[O-])NCc1ccccc1` [MMV688773] the “Cruzain Inhibition 0’” value was 19%.

Same assay, conditions: 10’ (pre-incubation); sheet Screening results
`CS(=O)(=O)N1CCC(CCn2nc(Cc3cccc4ccccc34)c3c(N)ncnc32)CC1` [MMV688470] was tested, and the “Cruzain Inhibition 10’” value was 11%. `CC(C(=O)Nc1ccc2oc(-c3ccncc3)nc2c1)c1ccccc1` (centres unmarked) [MMV688471] was tested, and the “Cruzain Inhibition 10’” value was 15%. `CC(Oc1cccc(Cl)c1)C(=O)Nc1ccc2oc(-c3ccncc3)nc2c1` (centres unmarked) [MMV688472] was tested, and the “Cruzain Inhibition 10’” value was 14%. For `CC(=O)NCC1CN(c2ccc(-c3ccc(CO)cc3)c(F)c2)C(=O)O1` (centres unmarked) [MMV688508], the “Cruzain Inhibition 10’” value was -2%. For `N=C(N)c1ccc(-c2cc(-c3ccccc3)on2)cc1` [MMV688514], the “Cruzain Inhibition 10’” value was 13%. In the case of `COc1ccc(C2=NCCN2)cc1-c1cn(-c2cccc(C3=NCCN3)c2)nn1` [MMV688547], the “Cruzain Inhibition 10’” value is reported as 13%. For `CC(C)(C)n1nc(-c2ccccc2)c2c(N)ncnc21` [MMV688548], the “Cruzain Inhibition 10’” value was 10%. In the case of `O=C(NCc1ccoc1)N1CCN(Cc2ccc3c(c2)OCO3)CC1` [MMV688553], the “Cruzain Inhibition 10’” value is reported as 0.9%. For `CNc1snc(C)c1C(=O)NCCOc1ccc(OC)cc1` [MMV688554], the “Cruzain Inhibition 10’” value was -4.6%. For `O=C(NCc1ccco1)N1CCN(Cc2ccc(Cl)s2)CC1` [MMV688555], the “Cruzain Inhibition 10’” value was 0.5%. `Cc1cc2nc(NC(=O)C(C)(C)C)nc(Cl)c2n1Cc1ccc(Cl)cc1` [MMV688704] was tested, and the “Cruzain Inhibition 10’” value was 10%. With `CC(=O)NC[C@H]1CN(c2ccc(N3CCSCC3)c(F)c2)C(=O)O1` [MMV688756] the “Cruzain Inhibition 10’” value was 11%. `CS(=O)(=O)c1ccc(C(=O)N(CC2CCCO2)c2nc3ccccc3s2)cc1[N+](=O)[O-]` (centres unmarked) [MMV688761] was tested, and the “Cruzain Inhibition 10’” value was 5.7%. With `c1ccc(-c2[nH]c3ccccc3c2C(c2ccccn2)N2CCCC2)cc1` (centres unmarked) [MMV688762] the “Cruzain Inhibition 10’” value was 1%. With `CNc1nnc(Sc2cnn(-c3ccccc3)c(=O)c2Cl)s1` [MMV688763] the “Cruzain Inhibition 10’” value was 9%. In the case of `Cc1[nH]c2ccccc2c1C(c1cccs1)N1CCN(C)CC1` (centres unmarked) [MMV688768], the “Cruzain Inhibition 10’” value is reported as 9%. `O=C(Cn1ccnc1[N+](=O)[O-])NCc1ccccc1` [MMV688773] was tested, and the “Cruzain Inhibition 10’” value was 4%.
